Key:
[1] = detection of SH045 metabolites in MLM, HLM and mouse urine by LC-MS/MS; assay type: in vitro ADME, mouse and human; details: metabolite of SH045 detected in MLM, HLM (NADPH, UDPGA) and/or mouse urine after 20 mg/kg BW i.v.
Protocol: To explore metabolites of SH045 formed by microsomes, DPBS, alamethicin (25 µg/mL) and MLM or HLM (1.0 mg/mL) were pre-incubated, further incubated with SH045 MgCl2, NADPH and UDPGA, terminated, and processed for LC-MS/MS analysis as described. Positive controls with testosterone and 4-nitrophenol and negative controls were analyzed too (Supplementary Materials SM7).
Larixyl-N-methylcarbamate ((1S,4S,4aR,8aS)-4-((S)-3-hydroxy-3-methylpent-4-en-1-yl)-4a,8,8-trimethyl-3-methylenedeca-hydro-naphthalen-1-yl methylcarbamate, SH045, TRPC6 inhibitor) was synthesized as described by Häfner et al. [1]. (+)-Larixol (internal standard, IS) was isolated from Larix decidua turpentine [2]. Kolliphor® EL was obtained from Caelo (Hilden, Germany). […]
SM2 Quantification of SH045 by HPLC and tandem mass spectrometric methods (LC-MS/MS) In brief, chromatographic separation was achieved using a Zorbax Eclipse XDB-C8 column (100 × 3.0 mm, 3.5 μm 80 Å, Agilent Technologies) with linear gradient elution using water and ACN, each with 0.1 % formic acid as additive, during a total run time of 20 min. For quantification (+)-larixol was used as IS. […] Freshly prepared calibration samples for SH045 in plasma and tissue comprised eight concentration levels analyzed in duplicates (2, 5, 10, 100, 200, 800, 1200 and 1600 ng/mL). […]

[2] = tested on: TRPC6; details: Ca^2+ influx assays; cited from earlier work
[3] = tested on: FSGS-related TRPC6 channel mutants, including M132T and R175Q; set-up: method as in PMID 28800680; details: including M132T and R175Q variants; cited from earlier work

Row | Structure (SMILES) | Occurrence [1] | IC50 [2] [nM] | inhibition of FSGS-related TRPC6 channel mutants [3]
1 | CC[C@@](C)(O)CC[C@H]1C(C)C[C@H](OC(=O)NC)[C@H]2C(C)(C)CCC[C@]12C (some centres unmarked) [M2a] | MLM, HLM | – | –
2 | C=C[C@](C)(CC[C@H]1C(=C)C[C@H](OC(=O)NC)[C@H]2C(C)(C)CCC[C@]12C)O[C@@H]1O[C@H](C(=O)O)[C@@H](O)[C@H](O)[C@H]1O [M8a] | MLM, HLM | – | –
3 | C=CC(C)(O)CCC1C(=C)CC(OC(C)=O)C2C(C)(C)CCCC12C (centres unmarked) [larixyl monoacetate] | – | ~500 | –
4 | C=CC(C)(O)CCC1C(=C)CC(OC(N)=O)C2C(C)(C)CCCC12C (centres unmarked) [larixyl-6-carbamate] | – | ~500 | strong inhibitor
